Assay results taken from patent publication EP3974434B1, “MACROLIDE DERIVATIVES, PREPARATION METHOD AND APPLICATION THEREOF” (Zhejiang Hisun Pharmaceutical Co., Ltd., priority 2019, dated 2020).

How the values were obtained:
BAF3 LMNA-TRKA^G595R = assay: Cell proliferation assay (CellTiter-Glo), BAF3 LMNA-TRKA G595R; type: cell-based; details: Mus musculus, 72 hours
Description: The following method was used to determine the effects of the compounds of the present invention on cell proliferation. […] For TRKA, BAF3 LMNA-TRKA^G595R stably transformed cell line was constructed by BAF3 cells. The above cell line was used to determine the inhibition of the compounds on cell activity. […] The cells were cultured in a 5% CO2 incubator at 37°C. The activity of the cells were determined by CellTiter-Glo® Luminescent Cell Viability Assay kit (Promega, article number: G7573).
The experimental methods were operated according to the steps in the kit instruction, and were briefly described as follows: a test compound was first dissolved in DMSO to prepare a storage solution, and then diluted in gradient with the corresponding cell culture medium to prepare a test sample. […] Cells in logarithmic growth phase were inoculated into a 96-well cell culture plate at a suitable density, and the cells were cultured in a 5% CO2 incubator at 37°C overnight. After adding the sample of the test compound, the cells were continuously cultured for 72 hours. After the culture, 50 µL of CellTiter-Glo detection solution was added to each well, shaken for 5 minutes, and then stood for 10 minutes, and the luminescence values of each well were read on the microplate reader using a Luminance mode.

ALK = target: T1, ALK (Homo sapiens, UniProt Q9UM73); assay: HTRF KinEASE-TK kinase activity inhibition assay, ALK; type: biochemical; details: ATP 1 µM
T1 construct: purchased SignalChem A19-11G-10
T1 sequence (Q9UM73 19-1620): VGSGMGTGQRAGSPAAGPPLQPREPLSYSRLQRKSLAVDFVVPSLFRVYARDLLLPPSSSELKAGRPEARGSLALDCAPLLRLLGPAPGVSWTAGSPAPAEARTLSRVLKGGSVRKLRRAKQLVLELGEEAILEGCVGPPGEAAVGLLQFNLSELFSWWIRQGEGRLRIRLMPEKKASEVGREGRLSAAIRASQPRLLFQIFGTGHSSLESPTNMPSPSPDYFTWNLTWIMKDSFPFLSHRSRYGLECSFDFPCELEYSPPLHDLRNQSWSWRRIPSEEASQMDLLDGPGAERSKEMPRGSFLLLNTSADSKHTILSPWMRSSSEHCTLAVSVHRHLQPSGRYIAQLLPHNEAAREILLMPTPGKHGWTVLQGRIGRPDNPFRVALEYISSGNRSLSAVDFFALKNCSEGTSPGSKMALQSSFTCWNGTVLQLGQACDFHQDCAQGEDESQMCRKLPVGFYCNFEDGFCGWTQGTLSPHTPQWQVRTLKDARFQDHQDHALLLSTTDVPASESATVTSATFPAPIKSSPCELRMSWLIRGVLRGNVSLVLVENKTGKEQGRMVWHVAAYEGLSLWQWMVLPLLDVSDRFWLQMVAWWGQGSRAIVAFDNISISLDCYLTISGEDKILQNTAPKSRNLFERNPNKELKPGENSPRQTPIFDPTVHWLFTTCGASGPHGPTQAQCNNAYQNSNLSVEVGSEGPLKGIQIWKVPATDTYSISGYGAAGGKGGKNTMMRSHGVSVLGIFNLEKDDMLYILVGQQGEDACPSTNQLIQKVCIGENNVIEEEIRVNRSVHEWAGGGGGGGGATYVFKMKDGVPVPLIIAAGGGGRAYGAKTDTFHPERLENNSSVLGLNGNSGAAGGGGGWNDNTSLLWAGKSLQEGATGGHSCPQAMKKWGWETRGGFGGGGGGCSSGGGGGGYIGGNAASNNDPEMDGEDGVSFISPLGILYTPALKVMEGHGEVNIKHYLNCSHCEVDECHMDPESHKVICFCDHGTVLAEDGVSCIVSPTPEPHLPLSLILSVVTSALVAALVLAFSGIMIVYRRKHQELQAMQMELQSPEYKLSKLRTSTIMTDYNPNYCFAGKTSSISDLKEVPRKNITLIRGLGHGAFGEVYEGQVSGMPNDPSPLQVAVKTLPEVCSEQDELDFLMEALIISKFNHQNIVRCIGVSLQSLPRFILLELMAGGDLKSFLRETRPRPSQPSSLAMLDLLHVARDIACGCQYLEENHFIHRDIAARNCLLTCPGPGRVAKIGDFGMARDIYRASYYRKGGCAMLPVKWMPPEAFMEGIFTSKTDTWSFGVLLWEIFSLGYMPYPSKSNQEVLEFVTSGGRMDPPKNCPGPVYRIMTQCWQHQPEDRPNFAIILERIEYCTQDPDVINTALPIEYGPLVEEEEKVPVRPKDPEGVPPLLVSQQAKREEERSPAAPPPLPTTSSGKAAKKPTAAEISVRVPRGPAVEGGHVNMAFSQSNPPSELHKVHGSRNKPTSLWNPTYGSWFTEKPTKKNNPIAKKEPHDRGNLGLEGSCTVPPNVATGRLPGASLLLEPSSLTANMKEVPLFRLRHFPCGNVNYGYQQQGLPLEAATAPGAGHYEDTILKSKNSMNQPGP
Description: The following method was used to determine the inhibition degrees of the compounds of the present invention on the activity of recombinant human ALK kinase in vitro. In this method, HTRF®KinEASE-TK tyrosine kinase kit (article No. 62TK0PEB) of Cisbio company was used, the principle of the kit was based on time-resolved fluorescence resonance energy transfer (TF-FRET), and the inhibition of the compounds on the activity of the ALK kinase was reflected by determining a phosphorylation degree of a biotinylated polypeptide substrate mediated by ALK kinase. […] The recombinant human ALK was purchased from SignalChem (article number was ALK#A19-11G-10).
The experimental flow was briefly described as follows: a test compound was first dissolved in DMSO to prepare a storage solution, and then diluted in gradient with a buffer provided in the kit. A final concentration of the test compound in the reaction system ranged from 1000 nM to 0.004 nM. An ATP Km value concentration of each ALK protein was determined by using an ATP solution diluted in gradient (Sangon Biotech (Shanghai) Co., Ltd., A600311). […] After incubation, fluorescence intensity values of each well at an excitation wavelength of 304 nm, and emission wavelengths of 620 nm and 665 nM were determined in a TF-FRET mode on a microplate reader, and the fluorescence intensity ratio 665/620 of each well was calculated. […]

ALK(G1202R) = target: T2, ALK(G1202R) (Homo sapiens, UniProt Q9UM73, G1202R); assay: HTRF KinEASE-TK kinase activity inhibition assay, ALK(G1202R); type: biochemical; details: ATP 10 µM
T2 construct: purchased SignalChem A19-12HG-10
T2 sequence (Q9UM73 19-1620 G1202R): as the sequence (Q9UM73 19-1620) above, with G1184R counted along it
Description: (§1) The following method was used to determine the inhibition degrees of the compounds of the present invention on the activities of recombinant human ALK(G1202R) and ALK(L1196M, G1202R) kinases in vitro. In this method, HTRF®KinEASE-TK tyrosine kinase kit (article No. 62TK0PEB) of Cisbio company was used, the principle of the kit was based on time-resolved fluorescence resonance energy transfer (TF-FRET), and the inhibitions of the compounds on the activities of the ALK(G1202R) and ALK(L1196M, G1202R) kinases were reflected by determining a phosphorylation degree of a biotinylated polypeptide substrate mediated by ALK kinase. For detailed experimental operation, please refer to the kit instruction. […]
(§2) The experimental flow was briefly described as follows: a test compound was first dissolved in DMSO to prepare a storage solution, and then diluted in gradient with a buffer provided in the kit. […] An ATP Km value concentration of each ALK protein was determined by using an ATP solution diluted in gradient (Sangon Biotech (Shanghai) Co., Ltd., A600311). […] After incubation, fluorescence intensity values of each well at an excitation wavelength of 304 nm, and emission wavelengths of 620 nm and 665 nM were determined in a TF-FRET mode on a microplate reader, and the fluorescence intensity ratio 665/620 of each hole was calculated. […]

ALK(L1196M, G1202R) = target: T3, ALK(L1196M, G1202R) (Homo sapiens, UniProt Q9UM73, G1202R/L1196M); assay: HTRF KinEASE-TK kinase activity inhibition assay, ALK(L1196M, G1202R); type: biochemical; details: ATP 25 µM
T3 construct: purchased SignalChem A19-12NG-10
T3 sequence (Q9UM73 19-1620 L1196M/G1202R): as the sequence (Q9UM73 19-1620) above, with L1178M, G1184R counted along it
Description: as §1, §2

ROS1 = target: T4, ROS1 (Homo sapiens, UniProt P08922); assay: HTRF KinEASE-TK kinase activity inhibition assay, ROS1; type: biochemical; details: ATP 1 µM
T4 construct: purchased SignalChem R14-11G-10
T4 sequence (P08922 28-2347): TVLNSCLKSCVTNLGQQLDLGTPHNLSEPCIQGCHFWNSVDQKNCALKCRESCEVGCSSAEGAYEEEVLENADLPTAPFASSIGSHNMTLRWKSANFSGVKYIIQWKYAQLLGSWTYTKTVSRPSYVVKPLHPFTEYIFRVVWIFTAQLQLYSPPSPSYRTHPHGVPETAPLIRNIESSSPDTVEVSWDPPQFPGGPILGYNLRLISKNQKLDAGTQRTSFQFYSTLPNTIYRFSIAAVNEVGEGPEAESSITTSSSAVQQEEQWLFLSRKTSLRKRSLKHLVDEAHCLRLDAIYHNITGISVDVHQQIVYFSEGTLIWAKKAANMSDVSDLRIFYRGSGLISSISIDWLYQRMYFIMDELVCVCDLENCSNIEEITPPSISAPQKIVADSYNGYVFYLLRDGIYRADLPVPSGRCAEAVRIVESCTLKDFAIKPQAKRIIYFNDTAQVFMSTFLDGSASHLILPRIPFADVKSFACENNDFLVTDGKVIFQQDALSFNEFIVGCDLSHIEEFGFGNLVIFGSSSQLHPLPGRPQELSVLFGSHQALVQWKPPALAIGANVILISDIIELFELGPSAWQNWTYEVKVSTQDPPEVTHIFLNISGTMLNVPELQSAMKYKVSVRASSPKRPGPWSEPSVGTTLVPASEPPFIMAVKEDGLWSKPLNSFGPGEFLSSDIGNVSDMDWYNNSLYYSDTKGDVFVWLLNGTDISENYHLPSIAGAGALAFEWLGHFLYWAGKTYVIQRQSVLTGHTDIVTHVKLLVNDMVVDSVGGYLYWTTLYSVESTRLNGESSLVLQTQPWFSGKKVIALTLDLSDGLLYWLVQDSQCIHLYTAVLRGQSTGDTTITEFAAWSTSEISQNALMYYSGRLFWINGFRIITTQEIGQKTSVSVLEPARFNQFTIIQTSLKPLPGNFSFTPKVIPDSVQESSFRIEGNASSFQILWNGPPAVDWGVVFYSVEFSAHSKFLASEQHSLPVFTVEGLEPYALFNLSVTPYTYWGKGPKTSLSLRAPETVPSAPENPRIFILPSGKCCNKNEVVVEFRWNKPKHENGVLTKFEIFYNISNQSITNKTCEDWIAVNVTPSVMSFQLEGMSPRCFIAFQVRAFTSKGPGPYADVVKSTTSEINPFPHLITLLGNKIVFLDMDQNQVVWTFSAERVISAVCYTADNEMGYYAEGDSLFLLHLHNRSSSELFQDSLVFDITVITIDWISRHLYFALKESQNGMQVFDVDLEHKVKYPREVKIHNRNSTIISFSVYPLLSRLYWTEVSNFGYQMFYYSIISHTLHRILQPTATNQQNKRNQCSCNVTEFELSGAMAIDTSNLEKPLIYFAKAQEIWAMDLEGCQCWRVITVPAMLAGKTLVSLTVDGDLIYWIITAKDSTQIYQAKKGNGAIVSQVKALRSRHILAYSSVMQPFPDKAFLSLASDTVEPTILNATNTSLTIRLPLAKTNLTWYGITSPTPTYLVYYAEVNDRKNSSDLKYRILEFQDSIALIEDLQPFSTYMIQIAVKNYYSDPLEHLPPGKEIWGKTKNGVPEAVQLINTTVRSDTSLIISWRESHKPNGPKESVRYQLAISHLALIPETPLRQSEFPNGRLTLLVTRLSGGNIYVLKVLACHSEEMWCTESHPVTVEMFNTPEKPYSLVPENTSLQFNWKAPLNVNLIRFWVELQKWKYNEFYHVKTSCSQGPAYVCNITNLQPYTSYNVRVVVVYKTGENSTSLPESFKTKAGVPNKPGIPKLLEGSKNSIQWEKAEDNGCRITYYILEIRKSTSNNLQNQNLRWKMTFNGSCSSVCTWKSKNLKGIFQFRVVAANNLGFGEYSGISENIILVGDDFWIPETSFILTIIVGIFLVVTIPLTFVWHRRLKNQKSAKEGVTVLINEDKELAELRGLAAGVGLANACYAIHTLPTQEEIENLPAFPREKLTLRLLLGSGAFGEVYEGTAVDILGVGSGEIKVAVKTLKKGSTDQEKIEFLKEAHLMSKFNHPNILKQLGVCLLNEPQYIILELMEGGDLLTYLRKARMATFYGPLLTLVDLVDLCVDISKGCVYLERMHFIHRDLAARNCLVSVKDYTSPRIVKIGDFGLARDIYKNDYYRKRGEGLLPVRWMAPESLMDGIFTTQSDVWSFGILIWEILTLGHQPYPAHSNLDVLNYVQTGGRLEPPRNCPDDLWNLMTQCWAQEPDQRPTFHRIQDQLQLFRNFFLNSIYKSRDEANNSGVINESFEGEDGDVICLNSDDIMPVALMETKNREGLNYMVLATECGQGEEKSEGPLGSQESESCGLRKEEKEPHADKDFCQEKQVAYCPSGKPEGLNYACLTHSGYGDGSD
Description: as §1, with “activity” for “activities”, “ROS1 kinase” for “ALK(G1202R) and ALK(L1196M, G1202R) kinases”, “inhibition” for “inhibitions”, “ROS1 kinase was” for “ALK(G1202R) and ALK(L1196M, G1202R) kinases were”, “ROS1” for “ALK”
as §2, with “ROS1” for “ALK”

ROS1(G2032R) = target: T5, ROS1(G2032R) (Homo sapiens, UniProt P08922, G2032R); assay: HTRF KinEASE-TK kinase activity inhibition assay, ROS1(G2032R); type: biochemical; details: ATP 0.5 µM
T5 construct: purchased SignalChem R14-12BG-10
T5 sequence (P08922 28-2347 G2032R): as the sequence (P08922 28-2347) above, with G2005R counted along it
Description: as §1, with “activity” for “activities”, “ROS1 kinase” for “ALK(G1202R) and ALK(L1196M, G1202R) kinases”, “inhibition” for “inhibitions”, “ROS1 kinase was” for “ALK(G1202R) and ALK(L1196M, G1202R) kinases were”, “ROS1” for “ALK”
as §2, with “ROS1” for “ALK”

| SMILES | IC50 (BAF3 LMNA-TRKA^G595R) [nM] | IC50 (ALK) [nM] | IC50 (ALK(G1202R)) [nM] | IC50 (ALK(L1196M, G1202R)) [nM] | IC50 (ROS1) [nM] | IC50 (ROS1(G2032R)) [nM] |
| --- | --- | --- | --- | --- | --- | --- |
| C[C@H]1Nc2ccn3ncc(c3n2)C(=O)NC[C@@]2(C)Cc3cc(F)cc1c3O2 [Example 8, (3R,11R)-6-fluoro-3,11-dimethyl-10-oxa-2,13,17,1 8,21-pentaazapentacyclo[13.5.2.1^8,11.0^4,9.0^18,22]tric osa-1(21),4,6,8,15(22),16,19-heptaen-14-one] | 3.1 | 2.02 | 13.2 | 20.7 | 0.36 | 0.34 |
| C[C@H]1Nc2ccn3nc(N)c(c3n2)C(=O)NC[C@@]2(C)Cc3cc(F)cc1c3O2 [Example 25, (3R,11R)-16-amino-6-fluoro-3,11-dimethyl-10-oxa-2,13,17,18,21-pentaazapentacyclo[13.5.2.1^8,11.0^4,9. 0^18,22]tricosa-1(21),4,6,8,15(22),16,19-heptaen-14-one] | 2.2 | 1.93 | 13.6 | 24.2 | 0.84 | 2.11 |
